Read-outs that look alike come from different tables or passages of the source.
Tests used:
[1] = Fluorescence properties and quantum yield measurements of the BAA library; assay type: physicochemical; design: FWHM (full-width-at half max): unit not given here; conditions: anhydrous DMSO; for λmax ABS / λmax EM: polystyrene 96 well plate; for FWHM (full-width-at half max): emission; for φfl (quantum yield): relative to reference fluorophore at three concentrations
Protocol: General Instruments. Synthesized sample purification was performed with an Agilent 1260 Infinity HPLC utilizing a C18 column (150mm×21.2 mm). MS (HRMS, ESI) spectra data was collected with an Agilent 6244 TOF LC/MS with diode array detector VL+ and C18 column (4.6 mm×50 mm). Absorbance and fluorescence data were measured on a SpectraMax M5 Microplate reader. NMR spectra, ^1H and ^13C, were recorded on a Bruker ARK400 spectrometer. BAA microscopy screening in cells for organelle specificity and signal-to-background ratio was completed with an Axio Zeiss Light Microscope and 63× oil immersion objective.
Fluorescence Properties and Quantum Yield Measurements. Spectroscopic characterizations were performed in anhydrous DMSO in polystyrene 96 well plate. Analysis included the maximum absorbance wavelength, maximum fluorescence emission wavelength, full-width-at half max, and quantum yield. Quantum yields (φfl) were determined by comparing the area under the emission spectrum of the BAA compound to a reference fluorophore solution at three concentrations using equation 1, where Grad represents the gradient from the plots of integrated fluorescence intensity vs absorbance at three concentrations and q is the refractive index of the solvent. Fluorescein in 0.1 M NaOH (φfl=0.91)^3 was the reference for samples with a max absorbance up to 510 nm, where an excitation of 470 nm was used with the emission integrated between 490 to 800 nm. Rhodamine B in ethanol (φfl=0.70) was the reference for samples with a max absorbance between 511-595 nm, where an excitation of 525 nm was used with the emission integrated between 545 to 800 nm. Cresyl violet in methanol (φfl=0.54)^4 was the reference for samples with a max absorbance above 595 nm, where an excitation of 570 nm was used with the emission integrated between 590 to 800 nm.

[2] = cited from earlier work

Row | Compound | Stokes Shift [1] [nm] | λmax ABS [1] [nm] | λmax EM [1] [nm] | FWHM (full-width-at half max) [1] | φfl (quantum yield) [1] | φfl (quantum yield) ([2]; in ethanol, reference for max absorbance between 511-595 nm) | φfl (quantum yield) ([2]; in methanol, reference for max absorbance above 595 nm)
1 | CC1=CC(C=Cc2cc(-n3ccnc3)ccc2C)=[N+]2C1=Cc1ccc(CCC(=O)O)n1[B-]2(F)F [BAA-50a] | 10 | 571 | 581 | 33 | 0.28 | – | –
2 | COc1ccc(/C=C/C2=[N+]3C(=Cc4ccc(CCC(=O)O)n4[B-]3(F)F)C(C)=C2)cc1F [BAA-13a] | 10 | 576 | 586 | 44 | 0.19 | – | –
3 | CCN(CC)c1ccc2c(-c3ccccc3C(=O)O)c3ccc(=[N+](CC)CC)cc-3oc2c1.[Cl-] [Rhodamine B] | – | – | – | – | – | 0.70 | –
4 | CC1=CC(/C=C/c2ccc(-c3ccc(C(F)(F)F)cn3)cc2)=[N+]2C1=Cc1ccc(CCC(=O)O)n1[B-]2(F)F [BAA-23a] | 11 | 592 | 603 | 30 | 0.23 | – | –
5 | C#CCOc1c(Cl)cc(C=CC2=[N+]3C(=Cc4ccc(CCC(=O)O)n4[B-]3(F)F)C(C)=C2)cc1OC [BAA-52a] | 8 | 577 | 585 | 51 | 0.04 | – | –
6 | Cresyl violet | – | – | – | – | – | – | 0.54
7 | COc1ccc(/C=C/C2=[N+]3C(=Cc4ccc(CCC(=O)O)n4[B-]3(F)F)C(C)=C2)c(OC)c1C [BAA-7a] | 18 | 582 | 600 | 63 | 0.29 | – | –
8 | CC1=CC(C=Cc2ccccc2Oc2ccc(C#N)cc2)=[N+]2C1=Cc1ccc(C(=Cc3ccccc3Oc3ccc(C#N)cc3)CC(=O)O)n1[B-]2(F)F [BAA-35b] | 9 | 571 | 580 | 32 | 0.25 | – | –
9 | COc1cc(/C=C/C2=[N+]3C(=Cc4ccc(CCC(=O)O)n4[B-]3(F)F)C(C)=C2)cc(I)c1OC [BAA-3a] | 10 | 569 | 579 | 31 | 0.61 | – | –
10 | CC1=CC(C=Cc2ccc(OCc3sccc3C#N)cc2)=[N+]2C1=Cc1ccc(C(=Cc3ccc(OCc4sccc4C#N)cc3)CC(=O)O)n1[B-]2(F)F [BAA-36b] | 13 | 579 | 592 | 37 | 0.35 | – | –
11 | CC1=CC(C=Cc2ccc(OC(=O)c3ccc(Cl)cc3Cl)cc2)=[N+]2C1=Cc1ccc(CCC(=O)O)n1[B-]2(F)F [BAA-42a] | 10 | 570 | 580 | 30 | 0.36 | – | –
12 | CC1=CC(/C=C/c2ccc(Oc3ccc(Cl)cc3)cc2)=[N+]2C1=Cc1ccc(/C(=C\c3ccc(Oc4ccc(Cl)cc4)cc3)CC(=O)O)n1[B-]2(F)F [BAA-27b] | 13 | 575 | 588 | 35 | 0.33 | – | –
13 | COc1cc(C=CC2=[N+]3C(=Cc4ccc(CCC(=O)O)n4[B-]3(F)F)C(C)=C2)cc(OC)c1 [BAA-53a] | 11 | 570 | 581 | 30 | 0.44 | – | –
14 | CC1=CC(C=Cc2ccc(OC(=O)c3ccc(Cl)cc3)cc2)=[N+]2C1=Cc1ccc(CCC(=O)O)n1[B-]2(F)F [BAA-43a] | 10 | 569 | 579 | 31 | 0.45 | – | –

More lines, main results first:

Row | Stokes Shift [1] [nm] | λmax ABS [1] [nm] | λmax EM [1] [nm] | FWHM (full-width-at half max) [1] | φfl (quantum yield) [1] | Compound | φfl (quantum yield) ([2]; in ethanol, reference for max absorbance between 511-595 nm) | φfl (quantum yield) ([2]; in methanol, reference for max absorbance above 595 nm)
15 | 10 | 585 | 595 | 30 | 0.17 | CC1=CC(C=Cc2ccc(-c3nccs3)cc2)=[N+]2C1=Cc1ccc(CCC(=O)O)n1[B-]2(F)F [BAA-68a] | – | –
16 | 12 | 577 | 589 | 30 | 0.85 | CC1=CC(C=Cc2ccc(-c3cc(Cl)cc(Cl)c3)nc2)=[N+]2C1=Cc1ccc(CCC(=O)O)n1[B-]2(F)F [BAA-69a] | – | –
17 | 15 | 579 | 594 | 33 | 0.68 | CC1=CC(C=Cc2cccc3cnccc23)=[N+]2C1=Cc1ccc(CCC(=O)O)n1[B-]2(F)F [BAA-62a] | – | –
18 | 16 | 606 | 622 | 54 | 0.21 | CC1=CC(C=Cc2ccc(-c3ccccc3F)o2)=[N+]2C1=Cc1ccc(CCC(=O)O)n1[B-]2(F)F [BAA-65a] | – | –
19 | 8 | 580 | 588 | 33 | 0.17 | CC1=CC(C=Cc2ccc(-c3cccc(C(F)(F)F)c3)nc2)=[N+]2C1=Cc1ccc(CCC(=O)O)n1[B-]2(F)F [BAA-70a] | – | –
20 | 10 | 585 | 595 | 32 | 0.91 | CC1=CC(C=Cc2ccc(-c3cccs3)nc2)=[N+]2C1=Cc1ccc(CCC(=O)O)n1[B-]2(F)F [BAA-56a] | – | –
21 | 49 | 614 | 663 | 91 | 0.08 | CC1=CC(C=Cc2ccc(N(CCC#N)CCC#N)cc2)=[N+]2C1=Cc1ccc(CCC(=O)O)n1[B-]2(F)F [BAA-75a] | – | –
22 | 16 | 574 | 590 | 45 | 0.75 | CC1=CC(C=Cc2cnn(-c3ccccc3C)c2C)=[N+]2C1=Cc1ccc(CCC(=O)O)n1[B-]2(F)F [BAA-57a] | – | –
23 | 55 | 605 | 660 | 91 | 0.18 | CC1=CC(C=Cc2ccc(N(CCC#N)CCC#N)cc2)=[N+]2C1=Cc1ccc(C(=Cc3ccc(N(CCC#N)CCC#N)cc3)CC(=O)O)n1[B-]2(F)F [BAA-75b] | – | –
24 | 14 | 579 | 593 | 39 | 0.37 | CC1=CC(C=Cc2ccc(OCc3ccc([N+](=O)[O-])cc3)cc2)=[N+]2C1=Cc1ccc(C(=Cc3ccc(OCc4ccc([N+](=O)[O-])cc4)cc3)CC(=O)O)n1[B-]2(F)F [BAA-78b] | – | –
